Reference: the NIST ThermoML archive (doi:10.1021/acs.jced.7b01125)

Assay: xn = mol fraction of the nth substance listed
Conditions: Gas, Buoyancy - hydrostatic balance with magnetic suspension - one sinker

[HH] [hydrogen] + C
Conditions | mass density [kg/m3]
240.07 K, 999 kPa, x2 = 0.9 | 7.556
240.07 K, 1000 kPa, x2 = 0.4997 | 4.558
240.07 K, 1999 kPa, x2 = 0.9 | 15.591
240.07 K, 2000 kPa, x2 = 0.4997 | 9.174
240.07 K, 3001 kPa, x2 = 0.9 | 24.162
240.07 K, 3002 kPa, x2 = 0.4997 | 13.857
240.07 K, 4001 kPa, x2 = 0.9 | 33.3
240.07 K, 4003 kPa, x2 = 0.4997 | 18.584
240.07 K, 5000 kPa, x2 = 0.4997 | 23.326
240.07 K, 5001 kPa, x2 = 0.9 | 43.067
240.07 K, 6003 kPa, x2 = 0.4997 | 28.124
240.07 K, 6003 kPa, x2 = 0.9 | 53.504
240.07 K, 7000 kPa, x2 = 0.4997 | 32.918
240.07 K, 7005 kPa, x2 = 0.9 | 64.62
240.07 K, 8003 kPa, x2 = 0.4997 | 37.747
240.07 K, 9002 kPa, x2 = 0.4997 | 42.553
240.07 K, 10006 kPa, x2 = 0.4997 | 47.368
240.07 K, 11006 kPa, x2 = 0.4997 | 52.137
240.07 K, 11011 kPa, x2 = 0.9499 | 128.048
240.07 K, 12005 kPa, x2 = 0.4997 | 56.857
240.07 K, 12014 kPa, x2 = 0.9499 | 142.433
240.07 K, 13003 kPa, x2 = 0.4997 | 61.522
240.07 K, 13016 kPa, x2 = 0.9499 | 155.953
240.07 K, 14011 kPa, x2 = 0.4997 | 66.173
240.07 K, 14016 kPa, x2 = 0.9499 | 168.365
240.07 K, 15002 kPa, x2 = 0.4997 | 70.674
240.07 K, 15021 kPa, x2 = 0.9499 | 179.661
240.07 K, 16013 kPa, x2 = 0.4997 | 75.179
240.07 K, 16020 kPa, x2 = 0.9499 | 189.762
240.07 K, 17008 kPa, x2 = 0.4997 | 79.535
240.07 K, 17018 kPa, x2 = 0.9 | 179.188
240.07 K, 17021 kPa, x2 = 0.9499 | 198.87
240.07 K, 18016 kPa, x2 = 0.4997 | 83.857
240.07 K, 18016 kPa, x2 = 0.9499 | 207.026
240.07 K, 18030 kPa, x2 = 0.9 | 187.542
240.07 K, 19008 kPa, x2 = 0.4997 | 88.009
240.07 K, 19013 kPa, x2 = 0.9499 | 214.425
240.07 K, 19032 kPa, x2 = 0.9 | 195.115
240.07 K, 19589 kPa, x2 = 0.9 | 199.054
240.07 K, 19703 kPa, x2 = 0.4997 | 90.858
240.07 K, 19891 kPa, x2 = 0.9499 | 220.394
240.08 K, 999 kPa, x2 = 0.9499 | 7.937
240.08 K, 1998 kPa, x2 = 0.9499 | 16.447
240.08 K, 3000 kPa, x2 = 0.9499 | 25.62
240.08 K, 3999 kPa, x2 = 0.9499 | 35.505
240.08 K, 5004 kPa, x2 = 0.9499 | 46.287
240.08 K, 6000 kPa, x2 = 0.9499 | 57.87
240.08 K, 7002 kPa, x2 = 0.9499 | 70.478
240.08 K, 8004 kPa, x2 = 0.9499 | 84.026
240.08 K, 8008 kPa, x2 = 0.9 | 76.371
240.08 K, 9003 kPa, x2 = 0.9499 | 98.317
240.08 K, 9004 kPa, x2 = 0.9 | 88.565
240.08 K, 10004 kPa, x2 = 0.9 | 101.131
240.08 K, 10007 kPa, x2 = 0.9499 | 113.159
240.08 K, 11012 kPa, x2 = 0.9 | 113.893
240.08 K, 12006 kPa, x2 = 0.9 | 126.282
240.08 K, 13016 kPa, x2 = 0.9 | 138.41
240.08 K, 14006 kPa, x2 = 0.9 | 149.671
240.08 K, 15020 kPa, x2 = 0.9 | 160.417
240.08 K, 16024 kPa, x2 = 0.9 | 170.25
250.03 K, 1001 kPa, x2 = 0.4997 | 4.372
250.03 K, 2000 kPa, x2 = 0.4997 | 8.784
250.03 K, 2990 kPa, x2 = 0.4997 | 13.19
250.03 K, 4000 kPa, x2 = 0.4997 | 17.721
250.03 K, 5000 kPa, x2 = 0.4997 | 22.235
250.03 K, 7001 kPa, x2 = 0.4997 | 31.315
250.03 K, 8002 kPa, x2 = 0.4997 | 35.861
250.04 K, 999 kPa, x2 = 0.9499 | 7.587
250.04 K, 1999 kPa, x2 = 0.9499 | 15.652
250.04 K, 3000 kPa, x2 = 0.9 | 22.884
250.04 K, 3002 kPa, x2 = 0.9499 | 24.252
250.04 K, 4000 kPa, x2 = 0.9 | 31.364
250.04 K, 4006 kPa, x2 = 0.9499 | 33.422
250.04 K, 5002 kPa, x2 = 0.9 | 40.328
250.04 K, 5005 kPa, x2 = 0.9499 | 43.167
250.04 K, 5999 kPa, x2 = 0.4997 | 26.765
250.04 K, 6001 kPa, x2 = 0.9499 | 53.515
250.04 K, 6004 kPa, x2 = 0.9 | 49.775
250.04 K, 7002 kPa, x2 = 0.9 | 59.655
250.04 K, 7002 kPa, x2 = 0.9499 | 64.575
250.04 K, 8004 kPa, x2 = 0.9 | 70.009
250.04 K, 9002 kPa, x2 = 0.4997 | 40.398
250.04 K, 9006 kPa, x2 = 0.9499 | 88.515
250.04 K, 9011 kPa, x2 = 0.9 | 80.795
250.04 K, 10001 kPa, x2 = 0.4997 | 44.91
250.04 K, 10014 kPa, x2 = 0.9 | 91.789
250.04 K, 11004 kPa, x2 = 0.4997 | 49.405
250.04 K, 11010 kPa, x2 = 0.9 | 102.827
250.04 K, 12004 kPa, x2 = 0.4997 | 53.836
250.04 K, 13005 kPa, x2 = 0.4997 | 58.27
250.04 K, 14003 kPa, x2 = 0.4997 | 62.615
250.04 K, 15009 kPa, x2 = 0.4997 | 66.921
250.04 K, 16007 kPa, x2 = 0.4997 | 71.14
250.04 K, 17008 kPa, x2 = 0.4997 | 75.293
250.04 K, 18013 kPa, x2 = 0.4997 | 79.385
250.04 K, 19258 kPa, x2 = 0.4997 | 84.34
250.05 K, 1000 kPa, x2 = 0.9 | 7.23
